Reference: PMC7298613, “Degradation of okadaic acid in seawater by UV/TiO2 photocatalysis – Proof of concept” (The Science of the Total Environment, 2020)

Molecular target: T1, protein phosphatase-1 catalytic subunit (PP1c) (Oryctolagus cuniculus, UniProt P62139)
T1 construct: gene PPP1CA; catalytic subunit
Experiment: colorimetric pNPP phosphatase inhibition assay, absorbance at […] nm, PP1 […]
Assay type: biochemical

T1 sequence (P62139 2-330): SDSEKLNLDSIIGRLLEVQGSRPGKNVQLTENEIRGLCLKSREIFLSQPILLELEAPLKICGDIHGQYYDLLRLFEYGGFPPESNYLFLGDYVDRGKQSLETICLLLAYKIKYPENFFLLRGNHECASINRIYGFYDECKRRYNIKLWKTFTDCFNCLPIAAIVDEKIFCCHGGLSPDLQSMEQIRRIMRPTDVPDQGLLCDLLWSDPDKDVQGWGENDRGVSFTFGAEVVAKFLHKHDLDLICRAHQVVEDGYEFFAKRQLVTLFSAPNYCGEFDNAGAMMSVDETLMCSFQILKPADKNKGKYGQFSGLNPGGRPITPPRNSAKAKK

`C=C1[C@@H](O)[C@@H]2O[C@]3(CC[C@H](/C=C/[C@@H](C)[C@@H]4CC(C)=C[C@@]5(O[C@H](C[C@@](C)(O)C(=O)O)CC[C@H]5O)O4)O3)CC[C@H]2O[C@@H]1[C@@H](O)C[C@H](C)[C@H]1O[C@@]2(CCCCO2)CC[C@H]1C` [OA, okadaic acid] showed an IC50 of 1180 nM.
